The values below are quoted from earlier work in patent US20200093804A1, “PHARMACEUTICAL COMPOSITION OF EVEROLIMUS” (INTAS PHARMACEUTICALS LTD., priority 2017, published 2020).

For the series the following is noted: from literature.

For `CO[C@H]1C[C@@H]2CC[C@@H](C)[C@@](O)(O2)C(=O)C(=O)N2CCCC[C@H]2C(=O)O[C@H]([C@H](C)C[C@@H]2CC[C@@H](OCCO)[C@H](OC)C2)CC(=O)[C@H](C)/C=C(\C)[C@@H](O)[C@@H](OC)C(=O)[C@H](C)C[C@H](C)/C=C/C=C/C=C/1C` [Everolimus, (1R,9S,12S,15R,16E,18R,19R,21R,23S,24E,26E,28E,30S,32S,35R)-1,18dihydroxy-12-{(1R)-2-[(1S,3R,4R)-4-(2-hydroxyethoxy)-3-methoxycyclohexyl]-1-methylethyl}-19,30-dimethoxy15,17,21,23,29,35-hexamethyl-11, 36-dioxa-4-aza-tricyclo[30.3.1.04,9]hexatriaconta-16,24,26,28-tetraene-2,3,10, 14,20pentaone], the solubility result is on record as “poor” and the stability entry is recorded as “poor”.
